How the values were obtained:
human DGAT1 = biological target: T1, human DGAT1 (Homo sapiens, UniProt O75907); test: DGAT enzyme inhibition test, hDGAT1 enzyme from sf9 insect cells; format: biochemical; conditions: enzyme from sf9 cells overexpressing hDGAT1; read-out: hDGAT-1 (sf9) IC50
T1 construct: made in house; host or cells: sf9 insect cells
T1 sequence (O75907 1-488): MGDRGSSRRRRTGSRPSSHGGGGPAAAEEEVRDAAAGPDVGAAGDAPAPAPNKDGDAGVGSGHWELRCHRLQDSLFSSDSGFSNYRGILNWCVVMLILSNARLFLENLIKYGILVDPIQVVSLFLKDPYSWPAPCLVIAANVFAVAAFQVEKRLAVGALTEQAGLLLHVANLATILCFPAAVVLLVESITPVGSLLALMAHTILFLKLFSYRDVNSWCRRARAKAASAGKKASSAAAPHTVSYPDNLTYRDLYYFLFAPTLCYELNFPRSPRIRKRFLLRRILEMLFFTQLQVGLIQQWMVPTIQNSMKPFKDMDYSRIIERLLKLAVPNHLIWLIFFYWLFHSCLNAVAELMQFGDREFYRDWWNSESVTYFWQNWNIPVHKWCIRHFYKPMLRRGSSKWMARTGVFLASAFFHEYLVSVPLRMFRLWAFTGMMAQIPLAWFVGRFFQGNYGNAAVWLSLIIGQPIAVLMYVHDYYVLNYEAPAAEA
Source text: To investigate inhibitory effect of the compounds of Examples 1-33 against DGAT enzyme activity, DGAT enzyme inhibition and DGAT2 selectivity were investigated using zymogen including:
1) hDGAT1 and hDGAT2 enzymes, derived from insect cell overexpressing human DGAT1 and DGAT2 (‘sf9’), respectively,
To be specific, for the purpose of measuring human-derived DGAT enzyme inhibitory activity, using the zymogen, including enzymes derived from insect cell overexpressing human DGAT1 and DGAT2 (‘sf9’), microsomal protein isolated from human duodenal adenocarcinoma (‘Hutu 80’), and microsomal protein isolated from rat, and according to Coleman et al., (Methods Enzymol., 98-103, 1992), and substrate including 1,2-diacylglycerol(Sigma, D0138) and [^14C]palmitoyl-CoA (Amersham, CFA583), the amount of radiation of [^14C]triacylglycerol produced after enzymatic reaction was measured.
To be more specific, to the reaction solution containing 175 mM Tris-HCl (pH 8.0), 20 μl bovine serum albumin (10 mg/ml), 100 mM magnesium chloride, 30 μM [^14C]palmitoyl CoA (0.02 μCi, Amersham) and 200 μM 1,2-dioleoylglycerol, reagent dissolved in dimethylsulfoxide (10.0 μl) was added. After introducing 100 to 200 μg isolated microsomal protein and allowing the same to react at 25° C. for 10 min, the reaction was stopped by adding 1.5 ml stop solution (2-propanol:heptane:water=80:20:2, v:v:v). To isolate the product of the reaction (i.e., [^14C]triacylglycerol), 1 ml heptane and 0.5 ml distilled water were added and then decocted. After taking 1 ml supernatant, 2 ml alkaline ethanol solution (ethanol:0.5 N sodium hydroxide:water=50:10:40, v:v:v) were added and then decocted. After taking 0.65 ml supernatant from the decoction, the amount of radiation was measured with liquid scintillation counter (LSC). The DGAT inhibitory activity was calculated with Mathematical Expression 1 below:
T denotes cpm of experimental group in which the enzymatic reaction solution was treated with the sample,
C denotes cpm of control group in which the enzymatic reaction solution was not treated with the sample, and
B denotes cpm of control group treated with the sample without zymogen.

HepG2 cells = test: DGAT inhibitory effect in HepG2 cells (triglyceride production from [14C]glycerol); format: cell-based; conditions: Homo sapiens; for activity at 10 µM: HepG2, 6 h, DMSO control = 100, read-out: Triglyceride production rate (%)/HepG2 cells at 10 μM; for inhibition at 10 µM: HepG2, 10 μM, read-out: biosynthesis inhibition rate of triglyceride
Protocol: To investigate inhibition effect on intracellular DGAT enzyme activity of the compounds obtained in Examples 1-51, intracellular DGAT enzyme activity was measured using human-derived liver HepG2 cells.
HepG2 cells were purchased from ATCC, and cultured in 37° C., 5% CO2 incubator including minimum essential medium (2 mM L-glutamine, earle's BSS adjusted to contain 1.5 g/L sodium bicarbonate, 0.1 mM nonessential amino acids, and 1 mM sodium pyruvate) added with 10% fetal bovine serum (FBS) and 1% antibiotic (100 U/ml penicillin and 100 µg/ml streptomycin).
The intracellular DGAT enzyme activity was measured based on an amount of triglycerides produced in the cultured HepG2 cells, by adding 10 μM enzyme inhibitor compounds obtained in Examples 1-51, respectively, and then determining the effect of the enzyme inhibitors according to reduction rate of the triglyceride production.
Specifically, cells were seeded 1×10^6 cell/ml per well of the 24 well culture plate, and 24 hours after incubation, medium was exchanged with FBS-free DMEM medium, and sample of 0.2 mCi [^14C]glycerol (Amersham) was added as substrate, and the reaction was allowed to occur for 6 hr. The induced production of triglyceride was catalyzed by the DGAT enzyme, and DGAT enzyme activity was determined based on the amount of production of triglyceride which was measured based on the amount of radiation. The sample was dissolved in dimethylsulfoxide (DMSO) to be used, and the control group in the triglyceride production reaction was reacted with dimethylsulfoxide only (i.e., without sample), and the amount of the triglyceride production rate was set to 100.
After the reaction completed, the substrate [^14C]glycerol which was either not absorbed into cells or not used for the reaction, were removed with phosphate-buffer-saline (PBS), and 0.5 ml extraction solvent (hexane:isopropanol=3:2, v:v) was added to extract full fat containing triglycerides. With 0.5 ml extraction solvent, extract was obtained two times for 30 min each, and 1 ml of the extract was concentrated with nitrogen gas. After removing the extraction solvent, the total fat was dissolved in organic solvent (chloroform:methanol=2:1) and spotted with thin-layer chromatography (TLC:silica gel 60F254, thickness: 0.5 mm, Merck) on the developing solvent (hexane:diethyl ether:acetic acid=80:20:1, v: v: v). Triglycerides (Rf value: 0.4) were isolated on TLC, and after exposing the TLC plate to the film with photosensitivity to radiation energy (imaging plate' Fujifilm, BMS-MS 2040) for 3 hr, the amount of [^14C] radiation of triglyceride was measured by imaging analysis (FLA 7000). The remaining cells after the extraction were dissolved in 0.3 ml 0.1 N sodium hydroxide for use in the measurement of protein concentration of the cells used for the reaction.
The experimental errors among the respective experimental groups were compensated with the experimental value which was obtained by dividing the measured radiation of triglyceride by protein concentration, and the production rate of triglyceride according to the respective compounds of Examples 1-51 are tabulated below.

Row | SMILES | IC50 (human DGAT1) | activity at 10 µM (HepG2 cells) | inhibition at 10 µM (HepG2 cells)
1 | CC(C)N(NC(=O)c1ccc(F)cc1)C(=O)/C=C/c1cn(C(=O)OC(C)(C)C)c2ccccc12 [Example 44, (E)-tert-butyl 3-(3-(2-(4-fluorobenzoyl)-1-isopropylhydrazinyl)-3-oxoprop-1-enyl)-1H-indole-1-carboxylate] | 2.1 µM | 94.8% | 
2 | CC(C)N(NC(=O)c1ccccc1)C(=O)CCc1cn(Cc2ccccc2)c2ccccc12 [Example 21, N′-(3-(1-benzyl-1H-indol-3-yl)propanoyl)-N′-isopropylbenzohydrazide] | > 100 µM | 103% | 
3 | CC(C)N(NC(=O)c1ccccc1)C(=O)/C=C/c1cn(C(=O)C(C)(C)C)c2ccccc12 [Example 31, (E)-N′-isopropyl-N′-(3-(1-pivaloyl-1H-indol-3-yl)acryloyl)benzohydrazide] | 9.3 µM | 93.3% | 
4 | CC(C)=CCn1cc(/C=C/C(=O)N(NC(=O)c2ccccc2)C(C)C)c2ccccc21 [Example 27, (E)-N′-isopropyl-N′-(3-(1-(3-methylbut-2-enyl)-1H-indol-3-yl)acryloyl)benzohydrazide] | 11.8 µM | 58.5% | 
5 | CC(C)N(NC(=O)c1ccccc1)C(=O)/C=C/c1cn(C2CC2)c2ccccc12 [Example 29, (E)-N′-(3-(1-cyclopropyl-1H-indol-3-yl)acryloyl)-N′-isopropylbenzohydrazide] | 24.6 µM | 59.6% | 30 to 40%
6 | CC(C)N(NC(=O)c1ccccc1)C(=O)/C=C/c1cn(C(=O)OC(C)(C)C)c2ccccc12 [Example 1, (E)-tert-butyl 3-(3-(2-benzoyl-1-isopropylhydrazinyl)-3-oxoprop-1-enyl)-1H-indole-1-carboxylate] | 9.6 µM | 60.1% | 30 to 40%
7 | COCCOc1cccc(C(=O)NN(C(=O)/C=C/c2cn(C(=O)OC(C)(C)C)c3ccccc23)C(C)C)c1 [Example 10, (E)-tert-butyl 3-(3-(1-isopropyl-2-(3-(2-methoxyethoxy)benzoyl)hydrazinyl)-3-oxoprop-1-enyl)-1H-indole-1-carboxylate] | 36.4 µM | 62% | 30 to 40%
8 | CC(C)N(NC(=O)c1cccc(Br)c1)C(=O)/C=C/c1cn(C(=O)OC(C)(C)C)c2ccccc12 [Example 12, (E)-tert-butyl 3-(3-(2-(3-bromobenzoyl)-1-isopropylhydrazinyl)-3-oxoprop-1-enyl)-1H-indole-1-carboxylate] | 6.8 µM | 93.5% | 
9 | CC(C)N(NC(=O)c1ccc(Cl)cc1)C(=O)/C=C/c1cn(C(=O)OC(C)(C)C)c2ccccc12 [Example 14, (E)-tert-butyl 3-(3-(2-(4-chlorobenzoyl)-1-isopropylhydrazinyl)-3-oxoprop-1-enyl)-1H-indole-1-carboxylate] | 8.8 µM | 84.4% | 
10 | CC(C)N(NC(=O)c1ccc(O)cc1)C(=O)/C=C/c1cn(C(=O)OC(C)(C)C)c2ccccc12 [Example 5, (E)-tert-butyl 3-(3-(2-(4-hydroxybenzoyl)-1-isopropylhydrazinyl)-3-oxoprop-1-enyl)-1H-indole-1-carboxylate] | 22.5 µM | 62.2% | 30 to 40%
11 | Cc1cccc(C(=O)NN(C(=O)/C=C/c2cn(C(=O)OC(C)(C)C)c3ccccc23)C(C)C)c1 [Example 47, (E)-tert-butyl 3-(3-(1-isopropyl-2-(3-methylbenzoyl)hydrazinyl)-3-oxoprop-1-enyl)-1H-indole-1-carboxylate] | 2.9 µM | 74.7% | 20 to 30%
12 | CC(C)N(NC(=O)c1ccc(OCCN2CCOCC2)cc1)C(=O)/C=C/c1cn(C(=O)OC(C)(C)C)c2ccccc12 [Example 9, (E)-tert-butyl 3-(3-(1-isopropyl-2-(4-(2-morpholinoethoxy)benzoyl)hydrazinyl)-3-oxoprop-1-enyl)-1H-indole-1-carboxylate] | > 100 µM | 83.8% | 
13 | CC(C)N(NC(=O)c1ccccc1)C(=O)CCc1cn(C(=O)OC(C)(C)C)c2ccccc12 [Example 24, tert-butyl 3-(3-(2-benzoyl-1-isopropylhydrazinyl)-3-oxopropyl)-1H-indole-1-carboxylate] | > 100 µM | 60.7% | 30 to 40%
14 | CC(C)N(NC(=O)c1ccccc1)C(=O)/C=C/c1cn(CC2CC2)c2ccccc12 [Example 28, (E)-N′-(3-(1-(cyclopropylmethyl)-1H-indol-3-yl)acryloyl)-N′-isopropylbenzohydrazide] | 41.6 µM | 64.4% | 30 to 40%
15 | COc1ccc(C(=O)NN(C(=O)/C=C/c2cn(C(=O)OC(C)(C)C)c3ccccc23)C(C)C)cc1 [Example 7, (E)-tert-butyl 3-(3-(1-isopropyl-2-(4-methoxybenzoyl)hydrazinyl)-3-oxoprop-1-enyl)-1H-indole-1-carboxylate] | > 100 µM | 85.8% | 
16 | CC(C)N(NC(=O)c1ccccn1)C(=O)/C=C/c1cn(C(=O)OC(C)(C)C)c2ccccc12 [Example 2, (E)-tert-butyl 3-(3-(1-isopropyl-2-picolinoylhydrazinyl)-3-oxoprop-1-enyl)-1H-indole-1-carboxylate] | > 100 µM | 64.2% | 30 to 40%
17 | CC(C)N(NC(=O)c1cccc(O)c1)C(=O)/C=C/c1cn(C(=O)OC(C)(C)C)c2ccccc12 [Example 4, (E)-tert-butyl 3-(3-(2-(3-hydroxybenzoyl)-1-isopropylhydrazinyl)-3-oxoprop-1-enyl)-1H-indole-1-carboxylate] | > 100 µM | 86.7% | 
18 | CC(C)N(NC(=O)c1cccc(OCC(=O)O)c1)C(=O)/C=C/c1cn(C(=O)OC(C)(C)C)c2ccccc12 [Example 19, (E)-2-(3-(2-(3-(1-(tert-butoxycarbonyl)-1H-indol-3-yl)acryloyl)-2-isopropylhydrazinecarbonyl)phenoxy)acetic acid] | > 100 µM | 103% | 
